For the assay, the system named is 5HT uptake. The assay is described as follows: Inhibition of 5HT uptake in vitro (synaptosomal uptake of 3H-serotonin, rat cerebral cortex). In kind it is biochemical, Sprague-Dawley rat. The note with it: rat cortical synaptosomes, 37° C., 5 min, 50 nM 3H-5HT; tested as oxalate salt; read-out: IC50 5HT (concentration needed to inhibit 50% of serotonin uptake). The protocol: This general procedure is set forth by Wong et al., in Drug Development Research 6:397-403 (1985).
Male Sprague-Dawley rats (110-150 g) from Harlan Industries (Cumberland, Ind.) were fed Purina Chow ad libitum for at least 3 days before being used in the studies. Rats were killed by decapitation. Whole brains were removed and dissected. Cerebral cortex was homogenized in 9 volumes of a medium containing 0.32 M sucrose and 10 mM glucose. Crude synaptosomal preparations were isolated after differential centrifugation at 1,000 g for 10 min. and 17,000 g for 28 min. The final pellets were suspended in the same medium and kept in ice until use within the same day.
Synaptosomal uptake of ^3 H-serotonin(^3 H-5-hydroxytryptamine, ^3 H-5HT) was determined as follows. Cortical synaptosomes (equivalent to 1 mg of protein) were incubated at 37° C. for 5 min in 1 ml of Krebsbicarbonate medium containing also 10 mM glucose, 0.1 mM iproniazid, 1 mM ascorbic acid, 0.17 mM EDTA and 50 nM ^3 H-5HT. The reaction mixture was immediately diluted with 2 ml of ice-chilled Krebs-bicarbonatebuffer and filtered under vacuum with a cell harvester (Brandel, Gaithersburg, Md). Filters were rinsed twice with approximately 5 ml of ice-chilled 0.9% saline and were transferred to a counting vial containing 10 ml of scintillation fluid (PCS, Amersham, Arlington Heights, Il). Radioactivity was measured by a liquid scintillation spectrophotometer. Accumulation of ^3 H-5HT at 4° C. represented the background and was subtracted from all samples.
The numbers in parentheses represent percent inhibition at 1000 nM.

Structures can show the parent of a compound that is named as a salt.

For the compound `CN(C)C(CCCc1cccc2ccccc12)c1ccccc1` (stereo not shown) [Example 2, N,N-Dimethyl-1-phenyl-4-(1-naphthalenyl)butylaminium oxalate], the IC50 is 30 nM.

Consider `NC(CCCc1cccc2ccccc12)c1ccccc1` (stereo not shown) [Example 1, 1-Phenyl-4-(1-napthalenyl)butylaminium oxalate], for which the IC50 was determined as 240 nM. For the compound `CN(C)C(CCc1cccc2ccccc12)c1ccccc1` (stereo not shown) [Example 4, N,N-Dimethyl-1-phenyl-3-(1-naphthalenyl)propylaminium oxalate], the IC50 turned out to be 240 nM. Take `CNC(CCCc1cccc2ccccc12)c1ccccc1` (stereo not shown) [Example 3, N-Methyl-1-phenyl-4-(1-naphthalenyl)butyl-aminium oxalate]: the IC50 came out at 70 nM.

The record behind these values is patent US4876282A, “1-Phenylalkylamines as selective serotonin uptake inhibitors” (Eli Lilly and Company, priority 1987, dated 1989).
